# Experimental data taken from patent US20150284381A1, “AMINO-PYRIDINE-CONTAINING SPLEEN TYROSINE KINASE (SYK) INHIBITORS” (MERCK SHARP & DOHME CORP., priority 2012, published 2015).
# What was measured:
# [1] = phase II clinical trial, allergic rhinitis; cited from earlier work
# PGD2 = conditions: dosed intranasally, phase I/II study, allergic rhinitis; cited from earlier work
# [2] = target: T1, recombinant human GST-Syk (Homo sapiens, UniProt P43405); assay: Homogeneous Time-Resolved Fluorescence (HTRF) assay for the recombinant human Syk enzyme; format: biochemical; conditions: recombinant human GST-Syk 5 pM, ATP 25 μM, 45 min at rt, read-out: rhSyk
# T1 construct: purchased Carna Biosciences 08-176
# Procedure: Homogeneous Time-Resolved Fluorescence (HTRF) Assay for the Recombinant Human Syk Enzyme
# A recombinant GST-hSyk fusion protein was used to measure potency of compounds to inhibit human Syk activity. The recombinant human GST-Syk (Carna Biosciences #08-176) (5 pM nominal concentration) was incubated with various concentrations of the inhibitor diluted in DMSO (0.1% final concentration) for 10 minutes at rt in 15 mM Tris-HCl (pH 7.5), 0.01% tween 20, 2 mM DTT in 384 well plate format. To initiate the reaction the biotinylated substrate peptide (250 nM final concentration) that contains the phosphorylation site for Syk was added with magnesium (5 mM final concentration) and ATP (25 μM final concentration). Final volume of the reaction was 10 μL. Phosphorylation of the peptide was allowed to proceed for 45′ at rt. To quench the reaction and detect the phosphorylated product, 2 nM of a Europium-anti-phosphotyrosine antibody (Perkin Elmer #AD0161) and 70 nM SA-APC (Perkin-Elmer #CR130-100) were added together in 15 mM Tris pH 7.5, 40 mM EDTA, 0.01% tween 20. Final volume of the quenching solution was 10 μL. The resulting HTRF signal was measured after 30 minutes on a EnVision (Perkin-Elmer) reader using a time-resolved fluorescence protocol. IC50 was determined following 10-dose titration (10 μM to 0.508 nM) and four parameter logistic curve fitting using an assay data analyzer.
IC50 [2],SMILES,other results
–,Oc1cccc(Nc2ncc(F)c(Nc3cccc(O)c3)n2)c1 [Example R112],efficacy versus placebo [1]: lack of efficacy versus placebo; PGD2 (PGD2): statistically significant decrease; clinical safety (PGD2): safe across a range of indicators
4610 pM,"Cc1cc(Nc2cc(C(F)(F)F)ccn2)nc(-c2cnc([C@@]3(O)CCCc4c3ccc(C(=O)O)c4O)s2)c1 (single isomer, unassigned) [Example 7A, 1,5-Dihydroxy-5-[5-(4-methyl-6-{[4-(trifluoromethyl)pyridin-2-yl]amino}pyridin-2-yl)-1,3-thiazol-2-yl]-5,6,7,8-tetrahydronaphthalene-2-carboxylic acid]",–
170 pM,"Cc1cc(Nc2cc(C(F)(F)F)ccn2)nc(-c2cnc(C3(O)CCCc4cc(C(=O)O)c(Cl)cc43)s2)c1 (single isomer, unassigned) [Example 1F, (R or S)-3-chloro-5-hydroxy-5-[5-(4-methyl-6-{[4-(trifluoromethyl)pyridin-2-yl]amino}pyridin-2-yl)-1,3-thiazol-2-yl]-5,6,7,8-tetrahydronaphthalene-2-carboxylic acid]",–
130 pM,"Cc1cc(Nc2cc(C(F)F)ccn2)nc(-c2cnc([C@@]3(O)CCc4cc(C(=O)O)ccc43)s2)c1 [Example 2i, (1R)-1-[5-(6-{[4-(difluoromethyl)pyridin-2-yl]amino}-4-methylpyridin-2-yl)-1,3-thiazol-2-yl]-1-hydroxy-2,3-dihydro-1H-indene-5-carboxylic acid]",–
740 pM,"CCOc1ccnc(Nc2cc(C)cc(-c3cnc([C@@]4(O)CCc5cc(C(=O)O)ccc54)s3)n2)c1 [Example 2D, (1R)-1-(5-{6-[(4-ethoxypyridin-2-yl)amino]-4-methylpyridin-2-yl}-1,3-thiazol-2-yl)-1-hydroxy-2,3-dihydro-1H-indene-5-carboxylic acid]",–
200 pM,"CCc1ccnc(Nc2cc(C)cc(-c3cnc([C@@]4(O)CCCc5cc(C(=O)O)ccc54)s3)n2)c1 [Example 2F, (5R)-5-(5-{6-[(4-ethylpyridin-2-yl)amino]-4-methylpyridin-2-yl}-1,3-thiazol-2-yl)-5-hydroxy-5,6,7,8-tetrahydronaphthalene-2-carboxylic acid]",–
670 pM,"Cc1cc(Nc2cc(C(F)(F)F)ccn2)nc(-c2cnc(C3(O)CCc4cc(C(=O)O)c(F)cc43)s2)c1 (single isomer, unassigned) [Example 1D, (R or S)-6-fluoro-1-hydroxy-1-[5-(4-methyl-6-{[4-(trifluoromethyl)pyridin-2-yl]amino}pyridin-2-yl)-1,3-thiazol-2-yl]-2,3-dihydro-1H-indene-5-carboxylic acid]",–
40 pM,"Cc1cc(Nc2cc(C(C)F)ccn2)nc(-c2cnc([C@@]3(O)CCc4cc(C(=O)O)ccc43)s2)c1 (single isomer, unassigned) [Example 2J, (1R)-1-[5-(6-{[4-((R or S)-1-fluoroethyl)pyridin-2-yl]amino}-4-methylpyridin-2-yl)-1,3-thiazol-2-yl]-1-hydroxy-2,3-dihydro-1H-indene-5-carboxylic acid]",–
510 pM,"Cc1cc(Nc2cc(C(F)(F)F)ccn2)nc(-c2cnc(C3(O)CCCc4cc(C(=O)O)c(Br)cc43)s2)c1 (single isomer, unassigned) [Example 1B, 3-Bromo-5-hydroxy-5-[5-(4-methyl-6-{[4-(trifluoromethyl)pyridin-2-yl]amino}pyridin-2-yl)-1,3-thiazol-2-yl]-5,6,7,8-tetrahydronaphthalene-2-carboxylic acid]",–
1200 pM,"Cc1cc(Nc2cc(-c3cn[nH]c3)ccn2)nc(-c2cnc(C3(O)CCCc4cc(C(=O)O)ccc43)s2)c1 (single isomer, unassigned) [Example 4B-1, 5-Hydroxy-5-[5-(4-methyl-6-{[4-(1H-pyrazol-4-yl)pyridin-2-yl]amino}pyridin-2-yl)-1,3-thiazol-2-yl]-5,6,7,8-tetrahydronaphthalene-2-carboxylic acid]",–
2000 pM,"Cc1cc(Nc2cc(C(C)F)ccn2)nc(-c2cnc(C3(O)CCCc4cc(C(=O)O)ccc43)s2)c1 (single isomer, unassigned) [Example 8C, 5-(5-(6-((4-(1-Fluoroethyl)pyridin-2-yl)amino)-4-methylpyridin-2-yl)thiazol-2-yl)-5-hydroxy-5,6,7,8-tetrahydronaphthalene-2-carboxylic acid]",–
150 pM,"Cc1ccnc(Nc2cc(C)cc(-c3cnc([C@@]4(O)CCc5cc(C(=O)O)ccc54)s3)n2)c1 [Example 2A, (1R)-1-hydroxy-1-(5-{4-methyl-6-[(4-methylpyridin-2-yl)amino]pyridin-2-yl}-1,3-thiazol-2-yl)-2,3-dihydro-1H-indene-5-carboxylic acid]",–
2190 pM,"Cc1cc(Nc2cc(C(F)(F)F)ccn2)nc(-c2cnc(C3(O)CCCc4c3ccc(C(=O)O)c4F)s2)c1 (single isomer, unassigned) [Example 1i, (R or S)-1-fluoro-5-hydroxy-5-[5-(4-methyl-6-{[4-(trifluoromethyl)pyridin-2-yl]amino}pyridin-2-yl)-1,3-thiazol-2-yl]-5,6,7,8-tetrahydronaphthalene-2-carboxylic acid]",–
160 pM,"COc1ccnc(Nc2cc(C)cc(-c3cnc([C@@]4(O)CCc5cc(C(=O)O)ccc54)s3)n2)c1 [Example 2G, (1R)-1-hydroxy-1-(5-{6-[(4-methoxypyridin-2-yl)amino]-4-methylpyridin-2-yl}-1,3-thiazol-2-yl)-2,3-dihydro-1H-indene-5-carboxylic acid]",–
170 pM,"CCc1ccnc(Nc2cc(C)cc(-c3cnc([C@@]4(O)CCc5cc(C(=O)O)ccc54)s3)n2)c1 [Example 2B, (1R)-1-(5-{6-[(4-ethylpyridin-2-yl)amino]-4-methylpyridin-2-yl}-1,3-thiazol-2-yl)-1-hydroxy-2,3-dihydro-1H-indene-5-carboxylic acid]",–
240 pM,"Cc1cc(Nc2cc(C(F)(F)F)ccn2)nc(-c2cnc([C@@]3(O)CCCc4c3ccc(C(=O)O)c4O)s2)c1 (single isomer, unassigned) [Example 7B, 1,5-Dihydroxy-5-[5-(4-methyl-6-{[4-(trifluoromethyl)pyridin-2-yl]amino}pyridin-2-yl)-1,3-thiazol-2-yl]-5,6,7,8-tetrahydronaphthalene-2-carboxylic acid]",–
40 pM,"Cc1cc(Nc2cc(-c3cn[nH]c3)ccn2)nc(-c2cnc([C@@]3(O)CCc4cc(C(=O)O)ccc43)s2)c1 [Example 5A, (1R)-1-hydroxy-1-[5-(4-methyl-6-{[4-(1H-pyrazol-4-yl)pyridin-2-yl]amino}pyridin-2-yl)-1,3-thiazol-2-yl]-2,3-dihydro-1H-indene-5-carboxylic acid]",–
